Experimental data: patent US9499495B2, “Quinazolines and azaquinazolines as dual inhibitors of RAS/RAF/MEK/ERK and PI3K/AKT/PTEN/mTOR pathways” (Asana Biosciences, LLC, priority 2013, dated 2016)

Tests used:
[1] = system: RKO cells; assay: XTT assay for cell viability, RKO cells; assay type: cell-based; conditions: Homo sapiens, 72 h
Experimental: Cell lines (A375 ATCC No. CRL-1619, A2058 ATCC No. CRL-11147 and RKO ATCC No. CRL-2577, American Type Culture Collection (ATCC), Manassas Va.) once attaining ˜80% confluency were trypsinized, centrifuged and resuspended in fresh media. Cells (1000-2000/per well) were seeded in 96-well plate and incubated over-night at 37° C. in a 5% CO2 incubator. Compound dilutions were prepared in 100% DMSO followed by dilutions in the respective media. The cells were treated with NCEs for 72 h at 37° C. in 5% CO2 incubator. After 72 h, freshly prepared XTT (1 mg/ml)/PMS (25 μM) solution was added, incubated for 2 to 3 h at 37° C. and the absorbance was measured at 450 nm using an ELISA plate reader. Keeping DMSO control as 100%, the effect of the compound to inhibit the cell proliferation was calculated and the GI50 values were determined using sigmoidal dose response curve fit in GraphPad Prism® v5 software.

[2] = system: A375 cells; assay: XTT assay for cell viability, A375 cells; assay type: cell-based; conditions: Homo sapiens, A-375, 72 h
In short: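 RKO and A375 cells seeded at 1000-2000/well overnight, then exposed to compound for 72 h at 37° C., 5% CO2. XTT (1 mg/ml)/PMS (25 μM) added for 2-3 h; absorbance at 450 nm. Growth relative to DMSO control (100%); GI50 from sigmoidal dose-response fit.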

[3] = target: T1, B-RAFV600E (Homo sapiens, UniProt P15056, V600E); assay: B-RAFV600E radiometric assay; assay type: biochemical; conditions: read-out: Kinase assay B-Raf
T1 construct: purchased Millipore, USA 14-557
T1 sequence (P15056 416-766 V600E limits assumed): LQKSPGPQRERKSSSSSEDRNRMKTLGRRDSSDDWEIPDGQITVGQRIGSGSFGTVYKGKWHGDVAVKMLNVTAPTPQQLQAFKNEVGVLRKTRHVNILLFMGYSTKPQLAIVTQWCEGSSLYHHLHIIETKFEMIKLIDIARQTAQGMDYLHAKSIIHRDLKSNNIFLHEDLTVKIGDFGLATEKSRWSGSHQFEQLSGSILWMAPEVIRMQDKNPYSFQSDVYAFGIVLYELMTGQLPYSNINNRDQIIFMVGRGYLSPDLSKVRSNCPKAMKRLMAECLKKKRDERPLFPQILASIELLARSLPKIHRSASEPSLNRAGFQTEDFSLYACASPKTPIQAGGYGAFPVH
In short: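 B-RAFV600E was preincubated 45 min at rt with compound in 1% DMSO. MEK-K97M (0.5 μg), 5 μM final cold ATP and [γ-32P]ATP were then added for 2 h at rt. Phosphorylated MEK was captured on P81 paper and scintillation-counted; IC50 came from a sigmoidal dose-response fit.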

[4] = target: T2, mTOR kinase (Homo sapiens, UniProt P42345); assay: mTOR kinase TR-FRET assay; assay type: biochemical
T2 construct: purchased Millipore, US
T2 sequence (P42345 1362-2549 limits assumed): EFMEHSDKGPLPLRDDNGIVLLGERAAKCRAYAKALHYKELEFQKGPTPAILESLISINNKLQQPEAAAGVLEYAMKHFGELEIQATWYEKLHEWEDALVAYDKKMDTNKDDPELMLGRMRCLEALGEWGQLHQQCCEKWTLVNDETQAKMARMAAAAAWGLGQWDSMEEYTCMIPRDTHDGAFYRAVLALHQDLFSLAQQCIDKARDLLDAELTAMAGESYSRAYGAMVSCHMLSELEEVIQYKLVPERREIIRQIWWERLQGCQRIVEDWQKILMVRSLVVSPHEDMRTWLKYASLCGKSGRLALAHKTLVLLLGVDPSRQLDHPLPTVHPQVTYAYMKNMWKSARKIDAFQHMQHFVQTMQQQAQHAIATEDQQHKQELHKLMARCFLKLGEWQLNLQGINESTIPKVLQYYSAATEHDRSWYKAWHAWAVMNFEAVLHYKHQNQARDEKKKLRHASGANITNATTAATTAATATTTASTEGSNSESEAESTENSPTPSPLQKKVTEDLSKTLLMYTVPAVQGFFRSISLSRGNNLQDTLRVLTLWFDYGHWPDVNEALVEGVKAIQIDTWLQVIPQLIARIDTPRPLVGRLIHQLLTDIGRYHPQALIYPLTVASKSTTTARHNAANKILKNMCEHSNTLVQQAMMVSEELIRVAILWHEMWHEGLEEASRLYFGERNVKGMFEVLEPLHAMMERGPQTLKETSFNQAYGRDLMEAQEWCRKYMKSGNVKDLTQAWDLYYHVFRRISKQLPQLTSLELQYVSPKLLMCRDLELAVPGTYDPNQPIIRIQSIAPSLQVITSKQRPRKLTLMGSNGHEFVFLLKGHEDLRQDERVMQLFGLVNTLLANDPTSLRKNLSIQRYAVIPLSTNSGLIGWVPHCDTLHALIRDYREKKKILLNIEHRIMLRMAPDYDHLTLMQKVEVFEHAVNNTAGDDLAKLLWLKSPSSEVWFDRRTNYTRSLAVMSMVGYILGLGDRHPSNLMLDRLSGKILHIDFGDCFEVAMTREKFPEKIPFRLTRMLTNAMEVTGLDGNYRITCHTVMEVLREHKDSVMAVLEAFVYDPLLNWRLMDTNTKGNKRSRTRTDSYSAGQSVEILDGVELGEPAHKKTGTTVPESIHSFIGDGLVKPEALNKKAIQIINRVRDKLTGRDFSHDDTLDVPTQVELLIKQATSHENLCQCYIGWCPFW
In short: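 TR-FRET with ULight-p70 S6K (Thr 389) peptide (50 nM) and 20 μM ATP in 50 mM HEPES pH 7.5, 1 mM EGTA, 3 mM MnCl2; compound pre-incubated with enzyme before substrate addition, reaction at rt, EDTA-stopped. Eu anti-phospho antibody read 665/615 nm; IC50 from sigmoidal dose-response fit.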

[5] = system: pS6RP in RKO cells; assay: In Cell Western (ICW) assay, pS6RP in RKO cells; assay type: cell-based; conditions: Homo sapiens, 3 h treatment
Experimental: (§1) Cell lines A375, A2058 and RKO obtained from the ATCC as provided above, were grown, and after attaining ˜80% confluency were trypsinized, centrifuged and resuspended in fresh media. The cells were seeded at the specified density (20,000 to 50,000) in a 96-well format black-well clear bottom plate (Corning) and incubated overnight at 37° C. in a 5% CO2 incubator. The next day, compound dilutions of test compounds were prepared in 100% DMSO followed by dilutions in respective media. Treatment of test compounds was performed for 3 h at 37° C. in 5% CO2 incubator. Following 3 h drug treatment, the conditional media was discarded and the cells were washed once with cPBS (PBS containing 0.1% magnesium chloride hexahydrate and 0.1% anhydrous calcium chloride) and fixed with 4% paraformaldehyde in cPBS for 1 h at rt. After fixing, the cells were given three washes using cPBST (cPBS containing 0.1% Triton™ X-100 reagent) and then blocked using blocking solution (5% skimmed milk powder or 5% BSA prepared in cPBST) for 2 h at rt with shaking at 300 rpm. The cells were again washed thrice with cPBST and incubated with primary antibody phospho-p44/42 MAPK(Erk1/2)(Thr202/204) antibody (Cell Signaling, Catalog # 9101L), phospho S6 ribosomal protein (Cell Signaling, Catalog #4858L), phospho AKT (Thr 308) (Cell Signaling, Catalog #9275) or phospho AKT (Ser 473) (Cell Signaling, Catalog #4060L) in specified dilutions (1:500-1:2500), prepared in respective blocking solutions, in a racker overnight at 4° C. The next day, the cells were washed with 1× Delfia® wash buffer (4×1 wash) and incubated with secondary antibody (Delfia®-Eu-N1 labeled anti-rabbit antibody; PerkinElmer, Catalog #AD0105; dilutions: 1:2000 to 1:6000 in Delfia® assay buffer (PerkinElmer, Catalog #1244-111)) for 2 h at rt in the dark at 300 rpm. The cells were then given four washes with 1× Delfia® wash buffer and incubated with Wallac Delfia® Enhancement solution (100 μL; PerkinElmer, Catalog #1244-105) for 20 min at rt in the dark at 300 rpm. The fluorescence emission was then read at 615 nm with an excitation wavelength of 340 nm using a Victor V5 Fluorometer (Perkin Elmer, US). The cells were then washed once with 1×cPBS and incubated with 100 μL of 0.5 mg/mL of Hoechst 33258 dye prepared in cPBS and read at 460 nm with 355 nm excitation, thereby evaluating the correction factor.
(§2) The % inhibition for the test compounds of formula (I) (new chemical entities (NCEs)) was calculated keeping DMSO control as 0% and the IC50 values were determined using sigmoidal dose response curve fit in GraphPad Prism® v5 software.

[6] = system: pERK in A375 cells; assay: In Cell Western (ICW) assay, pERK in A375 cells; assay type: cell-based; conditions: Homo sapiens, A-375, 3 h treatment
In short: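 RKO or A375 cells were exposed to compounds for 3 h at 37 °C, then fixed and stained in-cell with antibodies to pERK1/2 (T202/Y204), pS6RP or pAKT T308, followed by a Eu-labelled secondary. Time-resolved fluorescence (340/615 nm) was normalized to Hoechst, and IC50 values were fitted sigmoidally against DMSO as 0% inhibition.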

[7] = system: pERK in RKO cells; assay: In Cell Western (ICW) assay, pERK in RKO cells; assay type: cell-based; conditions: Homo sapiens, 3 h treatment
Experimental: as §1, §2

[8] = system: pAKT (T308) in RKO cells; assay: In Cell Western (ICW) assay, pAKT-T308 in RKO cells; assay type: cell-based; conditions: Homo sapiens, 3 h treatment
Experimental: as §1, §2

[9] = target: T3, PI3Kα (Homo sapiens, UniProt P42336); assay: PI3 Kinase alpha TR-FRET assay; assay type: biochemical
T3 construct: made in house; host or cells: SF9 cells
T3 sequence (P42336 whole entry, species assumed): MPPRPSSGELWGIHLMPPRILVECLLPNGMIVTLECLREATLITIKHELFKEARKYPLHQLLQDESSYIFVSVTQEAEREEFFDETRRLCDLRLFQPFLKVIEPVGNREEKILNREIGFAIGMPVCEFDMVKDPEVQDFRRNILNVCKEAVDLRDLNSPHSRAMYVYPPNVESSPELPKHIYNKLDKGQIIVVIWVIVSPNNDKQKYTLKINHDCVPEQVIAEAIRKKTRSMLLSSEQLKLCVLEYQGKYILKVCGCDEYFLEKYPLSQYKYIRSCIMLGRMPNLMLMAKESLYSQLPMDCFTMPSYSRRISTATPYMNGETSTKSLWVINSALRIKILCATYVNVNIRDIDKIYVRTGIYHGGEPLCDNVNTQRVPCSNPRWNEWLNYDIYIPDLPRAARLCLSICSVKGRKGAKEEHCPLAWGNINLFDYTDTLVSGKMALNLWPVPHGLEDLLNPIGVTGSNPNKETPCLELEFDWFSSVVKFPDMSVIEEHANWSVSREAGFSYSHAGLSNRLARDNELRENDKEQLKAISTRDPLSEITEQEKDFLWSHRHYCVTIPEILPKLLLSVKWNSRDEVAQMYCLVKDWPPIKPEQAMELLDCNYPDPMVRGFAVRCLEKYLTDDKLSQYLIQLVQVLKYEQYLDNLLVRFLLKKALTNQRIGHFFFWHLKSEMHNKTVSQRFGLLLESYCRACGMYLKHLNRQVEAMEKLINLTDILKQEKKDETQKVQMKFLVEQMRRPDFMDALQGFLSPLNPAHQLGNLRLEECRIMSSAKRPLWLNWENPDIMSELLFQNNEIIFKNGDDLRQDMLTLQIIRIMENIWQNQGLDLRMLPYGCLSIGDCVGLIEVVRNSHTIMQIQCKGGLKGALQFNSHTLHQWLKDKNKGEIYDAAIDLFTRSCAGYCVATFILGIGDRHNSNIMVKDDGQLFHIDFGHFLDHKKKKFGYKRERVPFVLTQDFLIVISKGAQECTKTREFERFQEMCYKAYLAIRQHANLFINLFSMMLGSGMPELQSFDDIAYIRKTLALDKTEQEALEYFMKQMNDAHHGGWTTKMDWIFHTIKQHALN
T3 sequence (P27986 whole entry partner, species assumed): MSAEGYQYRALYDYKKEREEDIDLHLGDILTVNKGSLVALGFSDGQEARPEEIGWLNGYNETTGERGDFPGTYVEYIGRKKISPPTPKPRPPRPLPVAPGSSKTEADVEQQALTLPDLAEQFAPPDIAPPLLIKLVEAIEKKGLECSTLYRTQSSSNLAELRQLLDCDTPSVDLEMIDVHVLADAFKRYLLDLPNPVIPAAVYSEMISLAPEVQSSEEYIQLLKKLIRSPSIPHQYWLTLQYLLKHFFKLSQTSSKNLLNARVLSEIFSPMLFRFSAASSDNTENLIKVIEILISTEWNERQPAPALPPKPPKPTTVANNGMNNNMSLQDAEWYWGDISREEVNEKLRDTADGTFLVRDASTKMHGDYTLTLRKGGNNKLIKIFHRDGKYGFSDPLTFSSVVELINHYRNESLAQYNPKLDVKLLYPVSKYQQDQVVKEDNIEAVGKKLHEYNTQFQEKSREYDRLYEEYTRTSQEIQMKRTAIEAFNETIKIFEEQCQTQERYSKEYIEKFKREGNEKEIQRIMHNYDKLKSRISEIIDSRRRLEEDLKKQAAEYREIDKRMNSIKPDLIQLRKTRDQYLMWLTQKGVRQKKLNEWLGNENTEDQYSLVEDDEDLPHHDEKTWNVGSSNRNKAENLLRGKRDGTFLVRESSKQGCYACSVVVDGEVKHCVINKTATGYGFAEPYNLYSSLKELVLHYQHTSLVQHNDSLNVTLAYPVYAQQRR
In short: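 Purified Sf9-expressed p110/p85α (5 ng) was pre-incubated with compound and PIP2 at rt, then ATP was added (PIP2 and ATP both 40 μM) for a 30 min reaction. PIP3 was detected by TR-FRET displacement of biotin-PIP3, and IC50 was taken from dose-response curves of the 665/615 nm emission ratio.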

SMILES	IC50 [1]	IC50 [2]	IC50 [3]	IC50 [4]	IC50 [5]	IC50 [6]	IC50 [7]	IC50 [8]	IC50 [9]
Nc1ccc(-c2nc(N3CCOCC3)c3cc(-c4cccc(NS(=O)(=O)CCCF)c4F)cc(N4CCOCC4)c3n2)cn1 [Example 5, N-(3-(2-(6-aminopyridin-3-yl)-4,8-dimorpholinoquinazolin-6-yl)-2-fluorophenyl)-3-fluoropropane-1-sulfonamide]	100 to 1000 nM	1 to 100 nM	1 to 100 nM	1 to 100 nM	1 to 100 nM	1 to 100 nM	1 to 100 nM	–	–
COc1cc(-c2cccc(NS(=O)(=O)CCCF)c2F)cc2c(N3CCOCC3)nc(-c3ccc(N)nc3)nc12 [Example 30, N-(3-(2-(6-aminopyridin-3-yl)-8-methoxy-4-morpholinoquinazolin-6-yl)-2-fluorophenyl)-3-fluoropropane-1-sulfonamide]	100 to 1000 nM	100 to 1000 nM	1 to 100 nM	100 to 1000 nM	100 to 1000 nM	1 to 100 nM	1 to 100 nM	–	–
COc1cc(-c2cccc(NS(=O)(=O)CCCF)c2F)cc2c(N3CCOC[C@H]3C)nc(-c3ccc(N)nc3)nc12 [Example 42, (R)-N-(3-(2-(6-aminopyridin-3-yl)-8-methoxy-4-(3-methylmorpholino)quinazolin-6-yl)-2-fluorophenyl)-3-fluoropropane-1-sulfonamide]	100 to 1000 nM	1 to 100 nM	1 to 100 nM	1 to 100 nM	100 to 1000 nM	1 to 100 nM	1 to 100 nM	–	–
CCOc1cc(-c2cccc(NS(=O)(=O)CCCF)c2F)cc2c(N3CCOCC3)nc(-c3ccc(N)nc3)nc12 [Example 52, N-(3-(2-(6-aminopyridin-3-yl)-8-ethoxy-4-morpholinoquinazolin-6-yl)-2-fluorophenyl)-3-fluoropropane-1-sulfonamide]	100 to 1000 nM	1 to 100 nM	1 to 100 nM	100 to 1000 nM	100 to 1000 nM	1 to 100 nM	1 to 100 nM	–	–
CC(C)Oc1cc(-c2cccc(NS(=O)(=O)CCCF)c2F)cc2c(N3CCOCC3)nc(-c3ccc(N)nc3)nc12 [Example 55, N-(3-(2-(6-aminopyridin-3-yl)-8-isopropoxy-4-morpholinoquinazolin-6-yl)-2-fluorophenyl)-3-fluoropropane-1-sulfonamide]	100 to 1000 nM	1 to 100 nM	1 to 100 nM	100 to 1000 nM	100 to 1000 nM	1 to 100 nM	1 to 100 nM	–	–
CC(C)Oc1cc(-c2cccc(NS(=O)(=O)CCCF)c2F)cc2c(N3CCOC[C@H]3C)nc(-c3ccc(N)nc3)nc12 [Example 63, (R)-N-(3-(2-(6-aminopyridin-3-yl)-8-isopropoxy-4-(3-methylmorpholino)quinazolin-6-yl)-2-fluorophenyl)-3-fluoropropane-1-sulfonamide]	100 to 1000 nM	1 to 100 nM	1 to 100 nM	1 to 100 nM	100 to 1000 nM	1 to 100 nM	1 to 100 nM	–	–
C[C@@H]1COCCN1c1nc(-c2cnc(N)nc2)nc2c(N3CCOCC3)cc(-c3cccc(NS(=O)(=O)CCCF)c3F)cc12 [Example 73, (R)-N-(3-(2-(2-aminopyrimidin-5-yl)-4-(3-methylmorpholino)-8-morpholinoqulnazolin-6-yl)-2-fluorophenyl)-3-fluoropropane-1-sulfonamide]	100 to 1000 nM	1 to 100 nM	1 to 100 nM	1 to 100 nM	100 to 1000 nM	1 to 100 nM	1 to 100 nM	–	–
Nc1ncc(-c2nc(N3CCOCC3)c3nc(-c4cccc(NS(=O)(=O)CCCF)c4F)ccc3n2)c(C(F)(F)F)n1 [Example 100, N-(3-(2-(2-amino-4-(trifluoromethyl)pyrimidin-5-yl)-4-morpholinopyrido[3,2-d]pyrimidin-6-yl)-2-fluorophenyl)-3-fluoropropane-1-sulfonamide]	100 to 1000 nM	100 to 1000 nM	1 to 100 nM	–	–	100 to 1000 nM	1 to 100 nM	100 to 1000 nM	1 to 100 nM
Nc1ncc(-c2nc(N3CCOCC3)c3nc(-c4cccc(NS(=O)(=O)CCCF)c4F)ccc3n2)cc1Cl [Example 103, N-(3-(2-(6-amino-5-chloropyridin-3-yl)-4-morpholinopyrido[3,2-d]pyrimidin-6-yl)-2-fluorophenyl)-3-fluoropropane-1-sulfonamide]	1000 to 10000 nM	–	1 to 100 nM	–	–	100 to 1000 nM	–	1000 to 10000 nM	100 to 1000 nM
Nc1ncc(-c2nc(N3CCOCC3)c3nc(-c4cccc(NS(=O)(=O)CCCF)c4F)ccc3n2)cc1F [Example 105, N-(3-(2-(6-amino-5-fluoropyridin-3-yl)-4-morpholinopyrido[3,2-d]pyrimidin-6-yl)-2-fluorophenyl)-3-fluoropropane-1-sulfonamide]	1000 to 10000 nM	100 to 1000 nM	1 to 100 nM	–	–	100 to 1000 nM	100 to 1000 nM	1000 to 10000 nM	1 to 100 nM
Cc1nc(N)ncc1-c1nc(N2CCOCC2)c2nc(-c3cccc(NS(=O)(=O)CCCF)c3F)ccc2n1 [Example 109]	–	100 to 1000 nM	1 to 100 nM	–	–	1 to 100 nM	100 to 1000 nM	1000 to 10000 nM	1 to 100 nM
CNC(=O)Nc1ccc(-c2nc(N3CCOCC3)c3nc(-c4cccc(NS(=O)(=O)CCCF)c4F)ccc3n2)cc1 [Example 139, 3-fluoro-N-(2-fluoro-3-(2-(4-(3-methylureido)phenyl)-4-morpholinopyrido[3,2-d]pyrimidin-6-yl)phenyl)propane-1-sulfonamide]	100 to 1000 nM	100 to 1000 nM	1 to 100 nM	1 to 100 nM	–	100 to 1000 nM	100 to 1000 nM	100 to 1000 nM	–
